What was measured:
CYP1A2 = target: T1, CYP1A2 (Homo sapiens, UniProt P05177); test: CYP1A2 inhibition (fluorescent substrate CEC); format: in vitro ADME; details: read-out: Cyp IC50 1A2
T1 sequence (P05177 1-516): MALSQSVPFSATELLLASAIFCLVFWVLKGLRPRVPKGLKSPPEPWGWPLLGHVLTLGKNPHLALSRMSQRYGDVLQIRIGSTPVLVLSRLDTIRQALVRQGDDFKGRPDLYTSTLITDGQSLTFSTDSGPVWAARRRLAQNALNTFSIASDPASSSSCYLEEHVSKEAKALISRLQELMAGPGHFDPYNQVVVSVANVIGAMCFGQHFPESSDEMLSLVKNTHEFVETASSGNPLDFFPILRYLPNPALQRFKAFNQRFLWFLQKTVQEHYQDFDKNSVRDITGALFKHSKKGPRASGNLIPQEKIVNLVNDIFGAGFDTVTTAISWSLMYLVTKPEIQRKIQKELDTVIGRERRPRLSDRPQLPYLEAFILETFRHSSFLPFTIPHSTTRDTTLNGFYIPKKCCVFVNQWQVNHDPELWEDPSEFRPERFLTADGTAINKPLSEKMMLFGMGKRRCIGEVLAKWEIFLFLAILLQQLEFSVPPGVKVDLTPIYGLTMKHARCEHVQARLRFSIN
Description: (§1) CYP (Cytochrome P450) enzymes are the major drug metabolizing enzymes present in the liver. The inhibition of CYP enzyme activity (IC50) for each of CYP1A2, CYP2C19, CYP2C9, CYP2D6, CYP3A4(BFC) and CYP3A4(BQ) is determined for compounds, where inhibition of metabolism of a known substrate leads to a decrease in the fluorescence of the metabolized product. The fluorescence of the product is monitored as a function of compound concentration. Compounds are dissolved in DMSO to a concentration of 100 mM. These are diluted 1 μL into 82 μL of acetonitrile. An 11 μL aliquot of this solution is then added to 204 μL of cofactor mix (1.3% NADPH Regeneration system Solution A, 1.04% NADPH Regeneration system Solution B from BD Biosciences, 5% acetonitrile and 0.05% DMSO). These are then serially diluted 1:1 (160 μL to 160 μL co-factor mix) for a total of 10 points. A 10 μL aliquot of this final mixture is dispensed into 384 well assay plates and incubated for 10 minutes at 37° C. […] Assay plates are incubated at 37° C. (CYP1A2-15 min; CYP2C9-45 min; CYP2C19, 2D6 and 3A4-30 min) and read in a Tecan Safire 2 plate reader (CYP1A2, 2C19 and 3A4 409 ex/460 em; CYP2C9 and 2D6 409 ex/530 em). The signal versus compound concentration is used to determine the IC50. The enzymes and substrates for this assay are obtained from BD Biosciences.

BCR-NTRK2 BaF3 cells = target: T2, BCR-NTRK2 BaF3 cells (Homo sapiens, UniProt Q16620); test: BaF3 BCR-NTRK2 cell proliferation assay (ATPlite); format: cell-based; details: read-out: Inhibition of Cell Proliferation IC50, BCR/BaF3 TrkB
T2 construct: fused on or other part: P11274 (Breakpoint cluster region protein)
T2 sequence (Q16620 538-807): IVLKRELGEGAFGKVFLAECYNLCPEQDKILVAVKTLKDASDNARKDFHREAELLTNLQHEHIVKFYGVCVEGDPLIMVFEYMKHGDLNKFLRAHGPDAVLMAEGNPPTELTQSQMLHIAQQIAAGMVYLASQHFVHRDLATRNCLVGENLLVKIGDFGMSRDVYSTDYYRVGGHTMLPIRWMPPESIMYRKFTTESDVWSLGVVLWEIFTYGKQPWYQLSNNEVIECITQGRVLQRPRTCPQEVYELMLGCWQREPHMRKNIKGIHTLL
Description: Compounds are assessed in a variety of cell based assays. For example BaF3 cells engineered with any of BCR-FMS, BCR-KIT, BCR-FLT3, BCR-NTRK1, BCR-NTRK2, and BCR-NTRK3, are used in cell proliferation assays to assess inhibitory activity of Fms, Kit, Flt-3, TrkA, TrkB, and TrkC, respectively. An MV-4-11 (leukemia) cell proliferation assay is used to assess inhibitory activity in Flt-3, and SKNSH (human neuroblastoma) cell proliferation assay is used to assess efficacy of Fms/Trk inhibitors. Additional cells may be assayed similarly to assess the efficacy of Fms/Trk inhibitors, such as MiaPaCa (human pancreatic cancer) and Capan-1 (human pancreatic carcinoma) cells. Reagent and assay conditions are as follows: • BaF3 cells: • Maintained in RPMI containing 10% FBS, 1% PenStrep, 1% NEAA, and 1% L-Glutamine, supplemented with 1 mg/mL G418 and 5% WEHI-CM (or recombinant murine IL-3). • Confluent cells are split 1:50 to 1:100 every 3-4 days. • MV-4-11 cells: • Maintained in Iscove's Modified Dulbecco's Medium containing 10% FBS. • Confluent cells are split 1:4 every 3-4 days. • SKNSH cells: RPMI containing 10% FBS. On day 1, cells are counted, then centrifuged in a conical tube for 5 minutes at 1000 rpm. The supernatant is removed and cells are re-suspended as follows: • BaF3: resuspend in growth media +1 mg/mL G418 (without WEHFIL-3) to 2×10^5 cells/mL. • MV-4-11: resuspend in growth media to 5×10^5 cells/mL. • SKNSH: resuspend in growth media to 2×10^4 cells/mL. The cells are plated (50 μL, 150 μL for SKNSH cells) in each well of a 96-well dish (Corning 3610) and incubated at 37° C. in 5% CO2 overnight, cells plated to a final concentration of cells as follows: • BaF3: 10,000 cells per well. • MV-4-11: 25,000 cells per well. • SKNSH: 3,000 cells per well. On day 2, compound at a maximum concentration of 5 mM is serially diluted 1:3 for a total of 8 point titration with DMSO as a control. A 1 μL aliquot of each dilution point is added to 249 μL growth media and 50 μL is added to a well containing cells, providing 10 μM compound for the maximum concentration point. The cells are incubated for 3 days at 37° C. in 5% CO2. For SKNSH cells, a 0.75 μL aliquot of appropriate dilution in DMSO is added to 150 μL of cells. On day 5, ATPlite 1 step Luminescence Assay System (Perkin Elmer #6016739) is brought to room temperature along with the cell cultures. ATPlite is added to each well as follows: • BaF3: 25 μL per well. • MV-4-11: 40 μL per well. • SKNSH: 20 μL per well. The cells are incubated at room temperature for 10 minutes, then luminescence is read on Safire reader. The measured luminescence correlates directly with cell number, such that the reading as a function of compound concentration is used to determine the IC50 value.
It is understood that the results of these assays may vary as assay conditions are varied. Inhibition levels determined under the conditions described herein represent a relative activity for the compounds tested under the specific conditions employed. The cell based assays are likely to show variability due to the complexity of the system and the sensitivity thereof to any changes in the assay conditions. […] Results for compounds that are tested and show substantially no inhibition below the highest tested concentration are represented as “-” in the tables below. In some instances, the compounds were not tested in all of the assays, or assay results were not valid, as indicated by NA in the tables below.

CYP3A4(BQ) = CYP3A4(BQ) (Homo sapiens, UniProt P08684); test: CYP3A4(BQ) inhibition; format: in vitro ADME; details: CYP3A4, substrate BQ; read-out: Cyp IC50 3A4(BQ)
CYP3A4(BQ), sequence (P08684 whole entry): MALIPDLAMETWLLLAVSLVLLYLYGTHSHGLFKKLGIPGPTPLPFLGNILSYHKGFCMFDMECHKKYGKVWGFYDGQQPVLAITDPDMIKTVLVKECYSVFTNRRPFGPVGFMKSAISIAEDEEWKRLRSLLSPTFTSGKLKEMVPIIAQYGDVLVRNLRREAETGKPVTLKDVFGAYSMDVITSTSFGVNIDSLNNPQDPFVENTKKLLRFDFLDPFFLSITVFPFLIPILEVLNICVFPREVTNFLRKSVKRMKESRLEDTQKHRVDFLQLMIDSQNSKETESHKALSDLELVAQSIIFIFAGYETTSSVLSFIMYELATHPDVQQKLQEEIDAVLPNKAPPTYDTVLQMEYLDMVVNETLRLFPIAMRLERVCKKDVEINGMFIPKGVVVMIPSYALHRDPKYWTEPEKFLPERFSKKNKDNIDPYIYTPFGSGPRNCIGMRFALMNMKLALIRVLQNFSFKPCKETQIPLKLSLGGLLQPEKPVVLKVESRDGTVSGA
Description: as §1

Row | IC50 (CYP1A2) | IC50 (BCR-NTRK2 BaF3 cells) | IC50 (CYP3A4(BQ)) | SMILES
1 | < 5 µM | < 0.01 µM | 5 to 10 µM | CCc1ccc(Nc2ccc(C(=O)c3c[nH]c4ncnc(NC5CCC(F)(F)CC5)c34)c(F)n2)cn1 [Compound P-4096, [4-[(4,4-difluorocyclohexyl)amino]-7H-pyrrolo[2,3-d]pyrimidin-5-yl]-[6-[(6-ethyl-3-pyridyl)amino]-2-fluoro-3-pyridyl]methanone]
2 | > 10 µM | < 0.01 µM | > 10 µM | COc1ccc(Nc2ccc(C(=O)c3c[nH]c4ncnc(NCC(F)(F)F)c34)c(F)n2)cn1 [Compound P-4084, [2-fluoro-6-[(6-methoxy-3-pyridyl)amino]-3-pyridyl]-[4-(2,2,2-trifluoroethylamino)-7H-pyrrolo[2,3-d]pyrimidin-5-yl]methanone]
3 | < 5 µM | < 0.01 µM | > 10 µM | CNc1ncnc2[nH]cc(C(=O)c3ccc(Nc4ccc(C(F)(F)F)nc4)nc3F)c12 [Compound P-4092, [2-fluoro-6-[[6-(trifluoromethyl)-3-pyridyl]amino]-3-pyridyl]-[4-(methylamino)-7H-pyrrolo[2,3-d]pyrimidin-5-yl]methanone]
4 | > 10 µM | < 0.01 µM | 5 to 10 µM | COc1ccc(Nc2ccc(C(=O)c3c[nH]c4ncnc(NC(C)C)c34)c(F)n2)cn1 [Compound P-4066, [2-fluoro-6-[(6-methoxy-3-pyridyl)amino]-3-pyridyl]-[4-(isopropylamino)-7H-pyrrolo[2,3-d]pyrimidin-5-yl]methanone]
5 | < 5 µM | < 0.1 µM | > 10 µM | CNc1ncnc2[nH]cc(C(=O)c3ccc(NC4CCCCC4)nc3F)c12 [Compound P-4102, [6-(cyclohexylamino)-2-fluoro-3-pyridyl]-[4-(methylamino)-7H-pyrrolo[2,3-d]pyrimidin-5-yl]methanone]
6 | < 5 µM | < 0.01 µM | > 10 µM | CCCCNc1ncnc2[nH]cc(C(=O)c3ccc(Nc4ccc(CC)nc4)nc3F)c12 [Compound P-4100, [4-(butylamino)-7H-pyrrolo[2,3-d]pyrimidin-5-yl]-[6-[(6-ethyl-3-pyridyl)amino]-2-fluoro-3-pyridyl]methanone]
7 | > 10 µM | < 1 µM | > 10 µM | CCCNc1ncnc2[nH]cc(C(=O)c3ccc(Nc4cncc(OC)c4)nc3F)c12 [Compound P-4105, [2-fluoro-6-[(5-methoxy-3-pyridyl)amino]-3-pyridyl]-[4-(propylamino)-7H-pyrrolo[2,3-d]pyrimidin-5-yl]methanone]
8 | > 10 µM | < 1 µM | > 10 µM | CC(C)Nc1ncnc2[nH]cc(C(=O)c3ccc(NC4CCCCC4)nc3Cl)c12 [Compound P-4109, [2-chloro-6-(cyclohexylamino)-3-pyridyl]-[4-(isopropylamino)-7H-pyrrolo[2,3-d]pyrimidin-5-yl]methanone]
9 | > 10 µM | < 0.1 µM | > 10 µM | O=C(c1ccc(NC2CCC(F)(F)CC2)nc1)c1c[nH]c2ncnc(NCC(F)(F)F)c12 [Compound P-4087, [6-[(4,4-difluorocyclohexyl)amino]-3-pyridyl]-[4-(2,2,2-trifluoroethylamino)-7H-pyrrolo[2,3-d]pyrimidin-5-yl]methanone]
10 | > 10 µM | > 1 µM | > 10 µM | COc1ccc(Nc2ccc(C(=O)c3c[nH]c4ncnc(N5CCCCC5)c34)c(F)n2)cn1 [Compound P-4069, [2-fluoro-6-[(6-methoxy-3-pyridyl)amino]-3-pyridyl]-[4-(1-piperidyl)-7H-pyrrolo[2,3-d]pyrimidin-5-yl]methanone]
11 | > 10 µM | < 0.01 µM | > 10 µM | CCNc1ncnc2[nH]cc(C(=O)c3ccc(Nc4ccc(OC)nc4)nc3F)c12 [Compound P-4081, [4-(ethylamino)-7H-pyrrolo[2,3-d]pyrimidin-5-yl]-[2-fluoro-6-[(6-methoxy-3-pyridyl)amino]-3-pyridyl]methanone]
12 | > 10 µM | > 10 µM | – | CC1CCC(Nc2ncc(Cc3c[nH]c4ncc(Cl)cc34)cn2)CC1 (centres unmarked) [Compound P-3009, [5-(5-Chloro-1H-pyrrolo[2,3-b]pyridin-3-ylmethyl)-pyrimidin-2-yl]-(4-methyl-cyclohexyl)-amine]
13 | > 10 µM | – | > 10 µM | CCCNc1ncnc2[nH]cc(C(=O)c3ccc(Nc4ccc(C)nc4)nc3F)c12 [Compound P-4114, [2-fluoro-6-[(6-methyl-3-pyridyl)amino]-3-pyridyl]-[4-(propylamino)-7H-pyrrolo[2,3-d]pyrimidin-5-yl]methanone]
14 | – | > 10 µM | – | Fc1ccccc1Nc1ncc(Cc2c[nH]c3ncc(Cl)cc23)cn1 [Compound P-3014, [5-(5-Chloro-1H-pyrrolo[2,3-b]pyridin-3-ylmethyl)-pyrimidin-2-yl]-(2-fluoro-phenyl)-amine]
15 | > 10 µM | – | > 10 µM | Cc1ccc(Nc2ccc(C(=O)c3c[nH]c4ncnc(NCC5CC5)c34)c(F)n2)cn1 [Compound P-4113, [4-(cyclopropylmethylamino)-7H-pyrrolo[2,3-d]pyrimidin-5-yl]-[2-fluoro-6-[(6-methyl-3-pyridyl)amino]-3-pyridyl]methanone]
16 | – | > 10 µM | – | Clc1cnc2[nH]cc(Cc3cnc(Nc4ccccc4Cl)nc3)c2c1 [Compound P-3015, (2-Chloro-phenyl)-[5-(5-chloro-1H-pyrrolo[2,3-b]pyridin-3-ylmethyl)-pyrimidin-2-yl]-amine]

From patent publication US8901118B2, “Compounds and methods for kinase modulation, and indications therefor” (Plexxikon Inc., priority 2010, dated 2014)
